Experimental data: US20020054927A1, “Process for the extraction of an active principle from leaves of Olea Europaea to promote the synthesis of stress proteins, obtained active principle” (priority 2000, published 2002)

Test system: HSP 70
Test: Production of stress protein HSP 70 (RNAm by RT-PCR, band intensity vs β-actine) in cutaneous cell cultures
Type: cell-based, human
Conditions: tested at 1.5 g/l
Procedure: 1st test with thermal treatment:
At J0, cutaneous cells, fibroblasts and/or keratinocytes are seeded.
At J4, 3% of active principle was added and after an incubation of 30 minutes thermal treatment is carried out for 1 hour at 39° C.
The positive specimen is treated for 1 hour at 44° C.
The total RNA is extracted. The RNA is reverse-transcripted and the complementary DNA is analyzed by using complementary oligonucleotides of a sequence coding the genes and proteins studied.
The RNAm of β-actine is analyzed for each experimental condition.
By image analysis, using for example the system sold under the name BIO-PROFIL, the band intensities are determined.
2nd test without thermal treatment:
At J3, 3% of active principle is added and left to incubate for 24 hours at 37° C.
At J4, at the end of this incubation, the cells are recovered.
The total RNA is extracted. The RNA is reverse-transcripted and the complementary DNA is analyzed by using complementary oligonucleotides of a sequence coding the genes and proteins used. The RNAm of p-actine is analyzed for each experimental condition.
Similarly to the above, by image analysis, the intensities of the bands are determined. […]
The results of the thermal treatments of the standard are indicated in the table in FIG. 1, taking as 100% the quantity of RNAm of HSP 70 after incubation at 37° C. of a standard specimen

Row | SMILES | effect on the synthesis of HSP 70 on fibroblasts, result in words
1 | OCCc1ccc(O)c(O)c1 [Dihydroxytyrosol] | very active
2 | C/C=C1/[C@H](O[C@@H]2O[C@H](CO)[C@@H](O)[C@H](O)[C@H]2O)OC=C(C(=O)OC)[C@H]1CC(=O)OCCc1ccc(O)c(O)c1 [Oleuropeine] | very active
